ChEMBL document CHEMBL3102727, “Conformationally constrained ortho-anilino diaryl ureas: discovery of 1-(2-(1'-neopentylspiro[indoline-3,4'-piperidine]-1-yl)phenyl)-3-(4-(trifluoromethoxy)phenyl)urea, a potent, selective, and bioavailable P2Y1 antagonist” (J Med Chem, 2013)
pIC50, pKi: −log10 of the molar value. Values after ≈ are worked out from the molar mass of the structure shown. Active and inactive are the calls of the source. No cut-off for these calls is given here.

What was measured:
Rattus norvegicus [1] = assay: Induction of mesenteric bleeding time in Sprague-Dawley rat at 0.6 mg/kg and 2.25 mg/kg/hr, iv measured over 10 mins relative to vehicle-treated control; type: organism-based; settings: in vivo
[2] = Clearance in dog at 0.2 mg/kg, po and 0.1 mg/kg, iv; type: ADME, organism-based, Canis lupus familiaris; settings: in vivo
Rattus norvegicus [3] = assay: Antithrombotic activity in FeCl2-induced Sprague-Dawley rat vena cava thrombosis model assessed as reduction of thrombus weight at 0.6 mg/kg and 2.25 mg/kg/hr, iv after 60 mins relative to vehicle-treated control; type: functional; set-up: scale not given: the % may be the effect or the level left
Rattus norvegicus [4] = assay: Antithrombotic activity in iv dosed FeCl2-induced Sprague-Dawley rat carotid artery thrombosis model assessed as inhibition of arterial thrombus formation after 60 mins; type: functional, organism-based
[5] = Fraction unbound in rat; type: ADME, organism-based; settings: in vivo
[6] = Aqueous solubility of the crystalline form of compound in phosphate buffer at pH 6.5; type: physicochemical
[7] = Oral bioavailability in dog at 0.2 mg/kg; type: ADME, organism-based, Canis lupus familiaris; settings: in vivo
P2Y purinoceptor 2 = P2Y purinoceptor 2 (Homo sapiens, UniProt P41231); assay: Antagonist activity at P2Y2 receptor in human HeLa cells assessed as intracellular calcium mobilization after 10 mins by Fluo-4 AM staining-based FLIPR assay; type: functional, cell-based
[8] = Total AUC in rat at 0.5 mg/kg, po; type: ADME, organism-based; set-up: time AUCmax, dose 0.5 mg/kg, route oral; settings: in vivo
[9] = Fraction unbound in rabbit; type: ADME, organism-based, Oryctolagus cuniculus; settings: in vivo
[10] = Volume of distribution at steady state in dog at 0.2 mg/kg, po and 0.1 mg/kg, iv; type: ADME, organism-based, Canis lupus familiaris; settings: in vivo, read-out: Vdss
[11] = Fraction unbound in dog; type: ADME, organism-based, Canis lupus familiaris; settings: in vivo
Rattus norvegicus [12] = assay: Antithrombotic activity in po dosed FeCl2-induced Sprague-Dawley rat carotid artery thrombosis model assessed as inhibition of arterial thrombus formation after 60 mins; type: functional, organism-based
[13] = Volume of distribution at steady state in rat at 0.5 mg/kg, iv administered as bolus dose; type: ADME, organism-based; set-up: dose 0.5 mg/kg, route intravenous; settings: in vivo, read-out: Vdss
[14] = biological target: Opioid receptors; mu/kappa/delta (Homo sapiens, UniProt P41145+P41143+P35372); assay: Inhibition of opioid receptor (unknown origin)
Rattus norvegicus [15] = assay: Antithrombotic activity in FeCl2-induced Sprague-Dawley rat carotid artery thrombosis model assessed as integrated blood flow at 10 mg/kg, po after 60 mins relative to vehicle-treated control; type: functional
Rattus norvegicus [16] = assay: Ex vivo antiplatelet activity in Sprague-Dawley rat assessed as inhibition of […] uM ADP-induced platelet aggregation at 3 mg/kg, po after 60 mins relative to vehicle-treated control; type: functional; settings: 1 h
Rattus norvegicus [17] = assay: Antithrombotic activity in FeCl2-induced Sprague-Dawley rat vena cava thrombosis model assessed as reduction of thrombus weight at 0.2 mg/kg and 0.75 mg/kg/hr, iv after 60 mins relative to vehicle-treated control; type: functional; set-up: scale not given: the % may be the effect or the level left
[18] = Partition coefficient, log P of the compound at pH 7 by reversed-phase HPLC method; type: physicochemical; settings: octanol/water
Rattus norvegicus [19] = assay: Antithrombotic activity in iv dosed FeCl2-induced Sprague-Dawley rat vena cava thrombosis model assessed as reduction of thrombus weight after 60 mins; type: functional, organism-based
Rattus norvegicus [20] = species: Rattus norvegicus; assay: Inhibition of rat sodium channel site-2 at 10 uM relative to control
Rattus norvegicus [21] = assay: Antithrombotic activity in FeCl2-induced Sprague-Dawley rat carotid artery thrombosis model assessed as integrated blood flow at 0.6 mg/kg and 2.25 mg/kg/hr, iv after 60 mins relative to vehicle-treated control; type: functional
Rattus norvegicus [22] = assay: Antithrombotic activity in iv dosed FeCl2-induced Sprague-Dawley rat carotid artery thrombosis model assessed as increase in integrated blood flow measured over 60 mins; type: functional, organism-based
Rattus norvegicus [23] = assay: Antithrombotic activity in FeCl2-induced Sprague-Dawley rat carotid artery thrombosis model assessed as prevention of vascular occlusion at 10 mg/kg, po after 60 mins; type: functional, organism-based; set-up: dose 10 mg/kg
Rattus norvegicus [24] = assay: Antithrombotic activity in FeCl2-induced Sprague-Dawley rat carotid artery thrombosis model assessed as reduction of thrombus weight at 0.2 mg/kg and 0.75 mg/kg/hr, iv after 60 mins relative to vehicle-treated control; type: functional; set-up: scale not given: the % may be the effect or the level left
L-type calcium channel = L-type calcium channel (Rattus norvegicus, UniProt P22002+P27732+Q02485); assay: Inhibition of rat L-type calcium channel at 10 uM relative to control
Rattus norvegicus [25] = assay: Antithrombotic activity in FeCl2-induced Sprague-Dawley rat carotid artery thrombosis model assessed as reduction of thrombus weight at 0.6 mg/kg and 2.25 mg/kg/hr, iv after 60 mins relative to vehicle-treated control; type: functional; set-up: scale not given: the % may be the effect or the level left
Rattus norvegicus [26] = assay: Ex vivo antiplatelet activity in Sprague-Dawley rat assessed as inhibition of […] uM ADP-induced platelet aggregation at 0.6 mg/kg and 2.25 mg/kg/hr, iv after 60 mins relative to vehicle-treated control; type: functional
Rattus norvegicus [27] = assay: Antithrombotic activity in FeCl2-induced Sprague-Dawley rat carotid artery thrombosis model assessed as reduction of thrombus weight at 3 mg/kg, po after 60 mins relative to vehicle-treated control; type: functional; set-up: scale not given: the % may be the effect or the level left
[28] = Half life in rat at 0.5 mg/kg, iv administered as bolus dose and po; type: ADME, organism-based; set-up: dose 0.5 mg/kg, route oral; settings: in vivo
Rattus norvegicus [29] = assay: Induction of mesenteric bleeding time in iv dosed Sprague-Dawley rat measured over 10 mins; type: organism-based; settings: in vivo
Rattus norvegicus [30] = assay: Antithrombotic activity in FeCl2-induced Sprague-Dawley rat carotid artery thrombosis model assessed as reduction of thrombus weight at 10 mg/kg, po after 60 mins relative to vehicle-treated control; type: functional; set-up: scale not given: the % may be the effect or the level left
P2Y purinoceptor 1 [31] = biological target: T1, P2Y purinoceptor 1 (Homo sapiens, UniProt P47900); assay: Antagonist activity at P2Y1 receptor in washed human platelets assessed as 1 uM 2-methylthio-ADP-induced calcium flux by FLIPR assay; type: functional
HEK293 = assay: Selectivity ratio of IC50 for P2X1 receptor in HEK293 cells to IC50 for P2Y1 receptor in washed human platelets; type: cell-based
[32] = Fraction unbound in human; type: ADME, organism-based; settings: in vivo
P2Y purinoceptor 1 [33] = biological target: T1, P2Y purinoceptor 1; assay: Displacement of [33P]-2MeS-ADP from human P2Y1 receptor expressed in HEK293 cells after 1 hr by scintillation counting analysis; type: cell-based
Rattus norvegicus [34] = assay: Antithrombotic activity in FeCl2-induced Sprague-Dawley rat carotid artery thrombosis model assessed as prevention of vascular occlusion at 0.6 mg/kg and 2.25 mg/kg/hr, iv after 60 mins; type: functional, organism-based
[35] = Oral bioavailability in rat at 0.5 mg/kg; type: ADME, organism-based; settings: in vivo
P2X purinoceptor 1 = biological target: T2, P2X purinoceptor 1 (Homo sapiens, UniProt P51575); assay: Antagonist activity at P2X1 receptor in HEK293 cells assessed as alpha, beta-methylene ATP-induced calcium flux by FLIPR assay; type: cell-based
T2 sequence (P51575 whole entry): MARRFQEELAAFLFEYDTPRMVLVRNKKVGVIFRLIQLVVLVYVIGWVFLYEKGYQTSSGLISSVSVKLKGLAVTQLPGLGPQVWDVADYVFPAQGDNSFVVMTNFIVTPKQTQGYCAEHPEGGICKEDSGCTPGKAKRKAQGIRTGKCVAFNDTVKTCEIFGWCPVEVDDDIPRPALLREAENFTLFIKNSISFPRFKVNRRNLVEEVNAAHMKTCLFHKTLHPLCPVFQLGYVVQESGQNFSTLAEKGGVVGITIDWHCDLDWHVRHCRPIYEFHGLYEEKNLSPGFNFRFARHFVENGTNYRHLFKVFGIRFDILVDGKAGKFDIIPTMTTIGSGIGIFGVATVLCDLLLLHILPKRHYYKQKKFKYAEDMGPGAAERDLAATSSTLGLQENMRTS

[36] = Fraction unbound in mouse; type: ADME, organism-based; settings: in vivo
Rattus norvegicus [37] = assay: Antithrombotic activity in po dosed FeCl2-induced Sprague-Dawley rat carotid artery thrombosis model assessed as increase in integrated blood flow measured over 60 mins; type: functional, organism-based
P2Y purinoceptor 12 = P2Y purinoceptor 12 (Homo sapiens, UniProt Q9H244); assay: Displacement of [33P]-2MeS-ADP from P2Y12 receptor (unknown origin) transfected in HEK293 cells after 1 hr by scintillation counting analysis; type: cell-based
[38] = Metabolic stability in human liver microsomes assessed as compound remaining after 10 mins; type: ADME; settings: read-out: Stability
[39] = Metabolic stability in rat liver microsomes assessed as compound remaining after 10 mins; type: ADME; settings: read-out: Stability
[40] = Half life in dog at 0.2 mg/kg, po; type: ADME, organism-based, Canis lupus familiaris; set-up: dose 0.2 mg/kg, route oral; settings: in vivo
Rattus norvegicus [41] = assay: Induction of mesenteric bleeding time in Sprague-Dawley rat at 0.2 mg/kg and 0.75 mg/kg/hr, iv measured over 10 mins relative to vehicle-treated control; type: organism-based; settings: in vivo
[42] = Clearance in rat at 0.5 mg/kg, iv administered as bolus dose; type: ADME, organism-based; set-up: dose 0.5 mg/kg, route intravenous; settings: in vivo
Rattus norvegicus [43] = assay: Ex vivo antiplatelet activity in Sprague-Dawley rat assessed as inhibition of […] uM ADP-induced platelet aggregation at 10 mg/kg, po after 60 mins relative to vehicle-treated control; type: functional; settings: 1 h
Rattus norvegicus [44] = assay: Ex vivo antiplatelet activity in Sprague-Dawley rat assessed as inhibition of […] uM ADP-induced platelet aggregation at 0.2 mg/kg and 0.75 mg/kg/hr, iv after 60 mins relative to vehicle-treated control; type: functional

T1 sequence (P47900 whole entry): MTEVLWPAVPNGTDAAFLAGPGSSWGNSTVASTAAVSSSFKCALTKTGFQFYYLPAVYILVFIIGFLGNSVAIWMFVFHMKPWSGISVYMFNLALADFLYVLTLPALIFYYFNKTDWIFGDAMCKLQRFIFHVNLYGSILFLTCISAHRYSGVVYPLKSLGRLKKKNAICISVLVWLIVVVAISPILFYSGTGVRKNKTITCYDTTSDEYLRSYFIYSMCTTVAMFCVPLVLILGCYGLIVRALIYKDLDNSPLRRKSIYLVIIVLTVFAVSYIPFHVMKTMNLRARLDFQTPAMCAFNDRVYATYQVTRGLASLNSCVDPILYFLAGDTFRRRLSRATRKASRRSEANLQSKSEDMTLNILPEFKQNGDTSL
Chain of P2Y purinoceptor 12 (Q9H244 whole entry): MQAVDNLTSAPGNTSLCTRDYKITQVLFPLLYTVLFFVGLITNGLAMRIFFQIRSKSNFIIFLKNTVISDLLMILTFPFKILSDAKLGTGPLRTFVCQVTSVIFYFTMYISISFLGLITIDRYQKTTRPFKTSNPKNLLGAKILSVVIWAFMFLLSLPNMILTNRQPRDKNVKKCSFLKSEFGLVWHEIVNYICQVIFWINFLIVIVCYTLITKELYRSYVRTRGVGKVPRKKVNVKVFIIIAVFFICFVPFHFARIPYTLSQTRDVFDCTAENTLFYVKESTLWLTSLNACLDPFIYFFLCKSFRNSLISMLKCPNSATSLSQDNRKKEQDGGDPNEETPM
Chain of P2Y purinoceptor 2 (P41231 whole entry): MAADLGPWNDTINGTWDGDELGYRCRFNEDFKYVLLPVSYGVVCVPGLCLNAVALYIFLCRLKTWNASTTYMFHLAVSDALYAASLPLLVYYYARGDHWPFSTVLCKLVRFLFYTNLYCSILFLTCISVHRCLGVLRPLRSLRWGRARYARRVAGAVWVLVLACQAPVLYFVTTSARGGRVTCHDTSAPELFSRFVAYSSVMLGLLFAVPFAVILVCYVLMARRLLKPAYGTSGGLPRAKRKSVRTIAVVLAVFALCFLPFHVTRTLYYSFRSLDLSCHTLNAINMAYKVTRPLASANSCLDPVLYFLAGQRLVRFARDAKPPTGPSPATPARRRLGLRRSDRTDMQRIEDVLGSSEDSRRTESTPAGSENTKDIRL

With `CC(C)(C)CN1CCC2(CC1)CN(c1ccccc1NC(=O)Nc1ccc(OC(F)(F)F)cc1)c1ccccc12` the “fold change (FC)” value (Rattus norvegicus [1]) was 2.3, the clearance [2] was 5.3 mL/min/kg and the Activity (Rattus norvegicus [3]) was -54%. The inhibition (Rattus norvegicus [4]) was “Dose-dependent effect”, the Fu [5] was under 0.1% and the solubility [6] was 4 µg/mL (≈ 7.24 µM). For the same molecule, the bioavailability [7] was 55%, the pIC50 (P2Y purinoceptor 2) was under 5.00 and the AUC [8] was 0.587 µM·h. The Fu [9] was 0.1%, the Vd [10] was 2.8 L/kg and the Fu [11] was 0.2%. For the same molecule, the inhibition (Rattus norvegicus [12]) was “Dose-dependent effect”, the Vd [13] was 2.8 L/kg and the IC50 [14] was 2700 nM. For the same molecule, the Activity (Rattus norvegicus [15]) was over 95%, the inhibition in vivo at 3 mg/kg (Rattus norvegicus [16]) was -48% and the Activity (Rattus norvegicus [17]) was -26%. The logP [18] was over 6.2, the Activity (Rattus norvegicus [19]) was “Dose-dependent effect” and the inhibition (Rattus norvegicus [20]) was 88%. For the same molecule, the Activity (Rattus norvegicus [21]) was over 95%, the Activity (Rattus norvegicus [22]) was “Dose-dependent effect” and the Activity (Rattus norvegicus [23]) was “Active”. It also gave an Activity (Rattus norvegicus [24]) of -41%, an inhibition at 10 µM (L-type calcium channel) of 78% and an Activity (Rattus norvegicus [25]) of 66%. The “inhibition (INH)” value (Rattus norvegicus [26]) was -85%, the Activity (Rattus norvegicus [27]) was -45% and the half-life [28] was 7.5 h. The Activity (Rattus norvegicus [29]) was “Dose-dependent effect”, the Activity (Rattus norvegicus [30]) was 64% and the pIC50 (P2Y purinoceptor 1 [31]) was 8.60. It also gave a Ratio IC50 (HEK293) of over 600, a Fu [32] of under 0.1% and a pKi (P2Y purinoceptor 1 [33]) of 8.37. The Activity (Rattus norvegicus [34]) was “Active”, the bioavailability [35] was 32% and the pIC50 (P2X purinoceptor 1) was 5.80. The Fu [36] was 0.2%, the Activity (Rattus norvegicus [37]) was “Dose-dependent effect” and the pIC50 (P2Y purinoceptor 12) was under 4.70. For the same molecule, the remaining at 10 min [38] was 89%, the remaining at 10 min [39] was 87% and the half-life [40] was 9.7 h. For the same molecule, the “fold change (FC)” value (Rattus norvegicus [41]) was 2.7, the clearance [42] was 9.1 mL/min/kg and the inhibition in vivo at 10 mg/kg (Rattus norvegicus [43]) was -64%. For the same molecule, the “inhibition (INH)” value (Rattus norvegicus [44]) was -30%.
